Data set [1] is described as follows: Hydroxyapatite (HA) Binding Assay. The following applies: binding to hydroxyapatite; 10^−5 M analyte, 50 mM Tris-HCl pH 7.4, 1% DMSO; tetracycline reference. From the text: The supernatant was transferred to another microcentrifuge tube.
Data set [2] has as its system bilaterally ovariectomized (OVX) rats. Description: Uterine mass and uterine mass to body weight ratio in OVX rats. It is filed as in vivo, Sprague-Dawley female rats. The following applies: for effect on uterine mass to body weight ratio: FIG. 9. The protocol:
(§1) Animals. Six month old, bilaterally ovariectomized (OVX) or sham operated Sprague-Dawley female rats (Harlan Laboratories, Indianapolis, Ind.) were maintained at the University of Louisville Research Resources Center at 22° C. with a 12-h light/dark cycle and ad libitum access to tap water and rodent chow (Purina Laboratory Rodent Diet 5001). All animal procedures were approved by the Institutional Animal Care and Use Committee, which is certified by the American Association for Accreditation of Laboratory Animal Care.
(§2) In vivo experiments were conducted in order to investigate the efficacy of compounds of the presently-disclosed subject matter. In all of the experiments, OVX and sham operated rats were randomly divided into groups of 5-7 animals. In all of the studies experimental groups included: i) Sham-operated control (euthanized six weeks post surgery as a pretreatment control), ii) OVX control (euthanized six weeks post surgery as a pretreatment control), iii) Sham control receiving vehicle, iv) OVX control receiving vehicle, v) OVX receiving 17-ethinyl estradiol (equimolar concentration with a selected test compound), vi) OVX receiving alendronate (1.6 mg/kg), and vii) OVX receiving parathyroid hormone 1-34 (PTH) (80 μg/kg). 17-ethinyl estradiol (17 EE) is a free estrogenic agent known to be orally active, and can serve as an example of an anti-catabolic agent. Alendronate (Alen) is a bisphosphonate that is currently used to treat osteoporosis (e.g., Fosamax®, Merck & Co., Inc,), and can serve as an example of an anti-catabolic agent. Parathyroid hormone 1-34 (PTH) is an agent that can serve as an example of an anabolic agent. All compounds and vehicle (1% DMSO in corn oil) were administered three times per week orally by gavage except for PTH which was administered via a subcutaneous injection in a volume of 0.5 ml/kg body mass thrice per week. Compound administration was initiated 6 weeks following surgery and lasted for 6 weeks (18 doses total).
(§3) Compounds of the presently-disclosed subject matter were orally administered to OVX rats at various doses. As indicated above all BTE's were administered three times per week for 6 weeks.
(§4) Following 6 weeks of treatment, blood was obtained from each animal via cardiac puncture following an overnight fast and animals were subsequently euthanized via carbon dioxide asphyxiation. Blood was centrifuged immediately and the obtained serum samples were aliquoted and stored at −70° C. prior to analysis. Uteri were removed and fresh weights were obtained. Uterine masses were normalized to body mass at the end of the experiment. The left and right femora and left and right tibiae were subsequently collected from each animal, cleaned of soft tissue, and stored in saline at 4° C. prior to analysis.
Uterine Mass and Body Weight. […] Uterine mass can be used to as a measure of estrogenic effect occurring in a tissue outside the bone in response to treatment with a test compound or composition. Generally, a lower uterine mass can be associated with a decreased risk of adverse side effects associated with the test compound or composition. A ratio of uterine mass to body weight can be used to correct for any increase in uterine size attributable to the relative size of the individual animal. Body weight and/or uterine mass also serve as an indirect measures of toxicity of a test compound.

The test system is the same in data set [3]. Description: RatLaps ELISA for C-telopeptide fragments of collagen type I (CTX-I) in serum. It is filed as in vivo, Sprague-Dawley female rats. Conditions: Formulas 66 and 67 at 250 μg/kg doses, 17-ethinyl estradiol equimolar, FIG. 16. The protocol: as §1
as §2, with “All compounds and vehicle (1% DMSO in corn oil) were administered three times per week orally by gavage except for PTH which was administered via a subcutaneous injection in a volume of 0.5 ml/kg body mass thrice per week. Compound administration was initiated 6 weeks following surgery and lasted for 6 weeks (18 doses total).” left out
RatLaps™ ELISA for C-telopeptide Fragments of Collagen Type I (CTX-I). […] Bone resorption (CTX-I) was quantitatively assessed in rat serum using the commercially available RatLaps™ ELISA KIT from Nordic Bioscience Diagnostics A/S (Herlev, Denmark) as recommended by the manufacturer.
For orientation: An ELISA detects its analyte on a solid surface through an enzyme-linked reagent.

A short description of data set [4]: Body weight of OVX rats during treatment. It is filed as in vivo, Sprague-Dawley female rats. The protocol:
as §1, §2, §3, §4
Uterine Mass and Body Weight. […]

In data set [5] the test system is bilaterally ovariectomized (OVX) rats. Description: Femoral density via Archimedes' Principle (whole bone). It is filed as in vivo, Sprague-Dawley female rats. Conditions: right femora. The protocol:
as §1, §2
Following 6 weeks of treatment, blood was obtained from each animal via cardiac puncture following an overnight fast and animals were subsequently euthanized via carbon dioxide asphyxiation. Blood was centrifuged immediately and the obtained serum samples were aliquoted and stored at −70° C. prior to analysis. Uteri were removed and fresh weights were obtained. […]
Femoral Density via Archimedes' Principle. […] Densities were determined using Archimedes' Principle according to the following formula: density=[mass of hydrated femur/(mass of hydrated femur−mass of hydrated femur submerged in water)]×density of distilled water at a given temperature (See Keenan, et al. Comparison of bone density measurement techniques: DXA and Archimedes' principle. J Bone Miner Res 1997; 12:1903-7.). […]

For data set [6] the test system is unchanged. Description: Regional femoral density via Archimedes' Principle. It is filed as in vivo, Sprague-Dawley female rats. As to the method:
as §1, §2
Following 6 weeks of treatment, blood was obtained from each animal via cardiac puncture following an overnight fast and animals were subsequently euthanized via carbon dioxide asphyxiation. Blood was centrifuged immediately and the obtained serum samples were aliquoted and stored at −70° C. prior to analysis. Uteri were removed and fresh weights were obtained. Uterine masses were normalized to body mass at the end of the experiment. […]
Regional Femoral Density via Archimedes' Principle. […] Briefly, each femur was measured with a Cen-Tech Digital Caliper and a cut was made from each end at 20% of the length of the femur plus half the width of the blade. Subsequently, the bone marrow was washed out of the femoral diaphysis and the Archimedes density for each of the three femoral regions was determined as described above.

Data set [7] has the same test system. Description: Lipid metabolism (total cholesterol, HDL, LDL) in rat serum. The following applies: present-tense statement, no data. Type of data set: in vivo, Sprague-Dawley female rats. As to the method: as §1
(§5) In vivo experiments were conducted in order to investigate the efficacy of compounds of the presently-disclosed subject matter. In all of the experiments, OVX and sham operated rats were randomly divided into groups of 5-7 animals. […]
Quantitative Determination of Lipid Metabolism (Total Cholesterol HDL, and LDL) in Rat Serum. Total cholesterol, high-density lipoprotein (HDL), and low-density lipoprotein (LDL) were quantitatively determined in the serum of rats in order to evaluate the extraosseous effects of estrogen treatment on lipid metabolism. […]

The test system is the same in data set [8]. Description: Volume fraction, ex vivo micro-computed tomography of tibia. It is filed as in vivo, Sprague-Dawley female rats. Conditions: for bone density by trabecular volume fraction: ex vivo micro-CT, compared to OVX animals, FIG. 14; for bone density in three-dimensional micro-CT images: reconstructed images, FIG. 15. As to the method:
as §1, §2, §4
Volume Fraction—Ex vivo micro-computed tomography (μCT). Volume fraction is a representative value for the amount of bone that occupies a given volume or space. […]

For data set [9] the test system is unchanged. Description: Bone mechanical competence indentation test. The following applies: proximal tibial metaphysis, present-tense statement, no data. It is filed as in vivo, Sprague-Dawley female rats. As to the method:
as §1
In vivo experiments were conducted in order to investigate the efficacy of compounds of the presently-disclosed subject matter. In all of the experiments, OVX and sham operated rats were randomly divided into groups of 5-7 animals. In all of the studies experimental groups included: i) Sham-operated control (euthanized six weeks post surgery as a pretreatment control), ii) OVX control (euthanized six weeks post surgery as a pretreatment control), iii) Sham control receiving vehicle, iv) OVX control receiving vehicle, v) OVX receiving 17-ethinyl estradiol (equimolar concentration with a selected test compound), vi) OVX receiving alendronate (1.6 mg/kg), and vii) OVX receiving parathyroid hormone 1-34 (PTH) (80 μg/kg). 17-ethinyl estradiol (17 EE) is a free estrogenic agent known to be orally active, and can serve as an example of an anti-catabolic agent. […]

The test system is the same in data set [10]. Description: Rat Osteocalcin EIA (serum). Type of data set: in vivo, Sprague-Dawley female rats. Conditions: versus OVX controls; FIG. 17. As to the method: as §1, §5
Rat Osteocalcin EIA. […] Rat serum osteocalcin levels were measured using the Rat Osteocalcin EIA Kit from Biomedical Technologies, Incorporated (Stoughton, Mass.) as recommended by the manufacturer.

In the next data set the test system is ICR Swiss mice. Description: Periosteal bone formation in mouse calvarial injection model. It is filed as in vivo. The following applies: subcutaneous over calvariae; histomorphometry; present-tense statement, no data. The protocol:
Stimulation of Periosteal Bone Formation in a Mouse Calvarial Injection Model. The anabolic (bone formation) potential of compounds of the presently-disclosed subject matter are evaluated in the mouse calvarial injection model. Briefly, 4-week-old ICR Swiss mice are injected subcutaneously over the surface of the calvariae with compounds of the presently-disclosed subject matter at concentrations of 0, 1, 3, and 10 mg/kg/day for 5 days (twice a day). Microtubule inhibitor TN-16 (5 mg/kg/day for 2 days, twice a day) are used as a positive control. Mice are sacrificed two weeks after the injections are completed. Dissected calvarial samples are fixed in 10% phosphate-buffered formalin for 2 days, decalcified in 10% EDTA for 2 weeks and then embedded in paraffin. Histological sections are cut and stained with H&E and orange G. New woven bone formation (new bone area) is quantified by histomorphometry using the OsteoMeasure system (OsteoMetrics Inc., Atlanta, Ga.).

Setting [11] is: OVX rats, oral, test compounds 25 or 250 μg/kg, 17-ethinyl estradiol equimolar, 3 times per week for 6 weeks, FIG. 8.
Setting [12] is: OVX rats, oral, test compounds 25 or 250 μg/kg, 17-ethinyl estradiol equimolar, 3 times per week for 6 weeks.
The mark [13] stands for this setting: oral 3 times per week for 6 weeks, FIG. 1.
The mark [14] stands for this setting: proximal and distal left femur, FIGS. 5 and 6.
Where [15] appears, read: oral 25 or 250 μg/kg, 3 times per week for 6 weeks, FIG. 7.
[16] abbreviates: proximal and distal left femur and left femoral diaphysis, oral 25 or 250 μg/kg, FIGS. 11, 12, 13.

Turning to `C[C@]12CC[C@@H]3c4ccc(O)cc4CC[C@H]3[C@@H]1CC[C@@H]2O` [17,β-estradiol], in data set [1], the “Binding Index” value is −8.

On to `C#C[C@]1(O)CC[C@H]2[C@@H]3CCc4cc(O)ccc4[C@H]3CC[C@@]21C` [17-ethinyl estradiol, reference compound], for which, in [2] (setting [11]), the “effect on uterine mass” value is on record as “induced an increase”. Moreover, the “effect on uterine mass to body weight ratio” value (shortened to “effect … to body weight ratio”) in data set [2] (setting [12]) is given as “induced an increase”. Also, the “production of CTX-I (bone resorption)” value in data set [3] is “decreased the production of CTX-1 to below sham levels”.

For `COc1ccc(N)c(O)c1C(N)=O` [BTA-2], the “effect on body weight” value in data set [4] (setting [13]) is listed as “no effect”. Besides, in data set [2] (rat, in vivo, po), the “effect on uterine mass” value was “no effect”. Further, the whole bone density result in data set [5] (FIG. 4) was “not significantly effected”. For the same compound, the regional bone density result in data set [6] (setting [14]) is “not significantly effected”.

With `NC(=O)c1c(OCc2ccccc2)ccc(N)c1O` [BTA-3], in data set [4] (setting [13]), the “effect on body weight” value is “no effect”. Also, the “effect on uterine mass” value in data set [2] (rat, in vivo, po) is listed as “no effect”. For the same compound, in [5] (FIG. 4), the whole bone density entry is listed as “not significantly effected”. For the same compound, in [6] (setting [14]), the regional bone density result is recorded as “not significantly effected”.

On to `CCCCOP(=O)(OCCCC)Oc1ccc2c(c1)CCC1C2CC[C@]2(C)C1CC[C@H]2OCCC(=O)Nc1ccc(OC)c(C(N)=O)c1O` (stereo partly drawn) [Formula 66], for which the “effect on body weight” value in data set [4] (setting [15]) is listed as “limited or no effect”. The “effect on uterine mass” value in [2] (setting [11]) is listed as “limited or no effect”. In data set [2] (setting [12]), the “effect … to body weight ratio” value is on record as “limited or no effect”. Besides, the “effect on lipid metabolism” value in data set [7] is listed as “limited or no effect”. Further, the whole bone density entry in data set [5] (oral 25 or 250 μg/kg, FIG. 10) was “in the same ranges as those animals receiving 17-ethinyl estradiol (17 EE), Alendronate (Alen), or Parathyroid hormone 1-34 (PTH)”. Moreover, the regional bone density result in [6] (setting [16]) is listed as “increased”. Besides, in data set [8], the “bone density by trabecular volume fraction” value is recorded as “increased” and the “bone density in three-dimensional micro-CT images” value was “affected an increase”. The bone strength entry in [9] is on record as “increase”. The “production of CTX-I (bone resorption)” value in [3] is given as “do not inhibit”. For the same compound, in [10], the serum osteocalcin levels result was “lower than in OVX controls”. Further, in the data set on ICR Swiss mice, the new bone area result was “increase”.

For the compound `COc1ccc(NC(=O)CCO[C@@H]2CCC3C4CCc5cc(OP(=O)(OCc6ccccc6)OCc6ccccc6)ccc5C4CC[C@]32C)c(O)c1C(N)=O` (stereo partly drawn) [Formula 67], in data set [4] (setting [15]), the “effect on body weight” value is “limited or no effect”. In [2] (setting [11]), the “effect on uterine mass” value is reported as “limited or no effect”. Further, the “effect … to body weight ratio” value in data set [2] (setting [12]) is listed as “limited or no effect”. For the same compound, in [7], the “effect on lipid metabolism” value is on record as “limited or no effect”. Further, the whole bone density result in data set [5] (oral 25 or 250 μg/kg, FIG. 10) is “in the same ranges as those animals receiving 17-ethinyl estradiol (17 EE), Alendronate (Alen), or Parathyroid hormone 1-34 (PTH)”. Further, the regional bone density result in data set [6] (setting [16]) was “increased”. Also, in data set [8], the “bone density by trabecular volume fraction” value was “increased” and the “bone density in three-dimensional micro-CT images” value is “affected an increase”. Further, the bone strength entry in data set [9] is “increase”. Further, the “production of CTX-I (bone resorption)” value in [3] was “do not inhibit”. For the same compound, the serum osteocalcin levels result in data set [10] was “lower than in OVX controls”. The new bone area entry in the data set with ICR Swiss mice is listed as “increase”.

The record behind these values is patent publication US20080221070A1, “METHODS AND COMPOUNDS FOR THE TARGETED DELIVERY OF AGENTS TO BONE FOR INTERACTION THEREWITH” (priority 2007, published 2008).
